We go through 15 molecules from ChEMBL document CHEMBL5038643, “Phytochemical Investigation of the Roots of Ipomoea asarifolia and Antiproliferative Activity of the Isolated Compounds against Multiple Myeloma Cells” (J Nat Prod, 2022).

One series relates to B-cell. As to the kind of experiment: Cytotoxicity against human B lymphocyte assessed as reduction in cell viability at 50 uM measured after 72 hrs by XTT assay. In kind it is toxicity, cell-based. (Formazan colour is commonly taken as a measure of viable cells.)
The test system of series [1] is MM1.S. Put plainly: Antiproliferative activity against dexamethasone-sensitive human MM.1S cells assessed as reduction in cell viability measured after 72 hrs by XTT assay. It is filed as functional, cell-based.
Series [2] can be described thus: Antiproliferative activity against dexamethasone-resistant human MM.1R cells assessed as reduction in cell viability measured after 72 hrs by XTT assay. In kind it is functional, cell-based.
Series [3] has as its system RPMI-8226. As to the kind of experiment: Antiproliferative activity against human RPMI 8226 cells assessed as reduction in cell viability measured after 72 hrs by XTT assay. It is filed as functional, cell-based. Conditions: RPMI-8226, 72 h.
The test system of a further series is MM.1R. As to the kind of experiment: Antiproliferative activity against dexamethasone-resistant human MM.1R cells assessed as reduction in cell viability at 10 uM measured after 72 hrs by XTT assay. In kind it is functional, cell-based.
Series [4] deals with MM1.S. As to the kind of experiment: Antiproliferative activity against dexamethasone-sensitive human MM.1S cells assessed as reduction in cell viability at 10 uM measured after 72 hrs by XTT assay. It is filed as functional, cell-based.
For series [5], the system named is RPMI-8226. As to the kind of experiment: Antiproliferative activity against human RPMI 8226 cells assessed as reduction in cell viability at 10 uM measured after 72 hrs by XTT assay. In kind it is functional, cell-based.

Activity calls are given as the source filed them. The rule behind the calls is not given here. Some results are limits rather than exact numbers.

As usually defined, the IC50 is the midpoint of a concentration-inhibition curve. For the molecule `CCCCCCCCCCCCCCCCCCOC(=O)/C=C/c1ccc(O)c(O)c1`, in the series on B-cell, the Activity entry is given as “Non-Toxic”. The IC50 in the series with MM1.S [1] was more than 10 µM; in series [2], more than 10 µM; in the series on RPMI-8226 [3], 9.4 µM. For the same molecule, the result with MM.1R and in the series with MM1.S [4] was inactive.
As for `CCCCCCCCCCCCCCCCOC(=O)/C=C/c1ccc(O)c(O)c1`, the Activity entry with B-cell is “Non-Toxic”. For the same molecule, the values for the IC50 (in the series on MM1.S [1]; in series [2]; in the series with RPMI-8226 [3]) were more than 10 µM, more than 10 µM and 3 µM, respectively. In addition, the outcome in the series with MM.1R and with MM1.S [4] was inactive.
For the molecule `CCCCCCCCCCCC(=O)O[C@H]1[C@H](O[C@@H]2[C@H]3OC(=O)CCCCCCCCC[C@H](CCCCC)O[C@@H]4O[C@H](C)[C@H](O)[C@H](O)[C@H]4O[C@H](O[C@H]2C)[C@@H]3O)O[C@@H](C)[C@H](O[C@@H]2O[C@@H](C)[C@H](OC(=O)CCCCCCC)[C@@H](O)[C@H]2O)[C@H]1O[C@@H]1O[C@@H](C)[C@H](O)[C@@H](O)[C@H]1O`, the result in the series with RPMI-8226 [5], in the series on MM.1R and in the series on MM1.S [4] was inactive. Further, in the series with RPMI-8226 [3], the IC50 was more than 10 µM.
As for `C[C@H](CO)CC(=O)C[C@@H](C)CCC(=O)c1ccoc1`, the IC50 in the series on RPMI-8226 [3] is more than 10 µM. For the same molecule, the result with MM.1R and in the series on MM1.S [4] was inactive.
For the molecule `CCCCCCCCCCCCCCCCCCCCOC(=O)/C=C/c1ccc(O)cc1`, the result with MM.1R and in the series with MM1.S [4] was inactive.
Consider `CCCCCCCCCCCCCCCCCCOC(=O)/C=C/c1ccc(O)cc1`, for which the outcome in the series on MM.1R and in the series on MM1.S [4] was inactive.
On to `CCCCCCCCCCCCCCCCOC(=O)/C=C/c1ccc(O)cc1`, for which the result in the series on MM.1R and in the series with MM1.S [4] was inactive.
As to `CC(C)C[C@H](NC(=O)[C@H](Cc1ccccc1)NC(=O)c1cnccn1)B(O)O` [BORTEZOMIB], the results for the 50% inhibitory concentration (IC50) (with MM1.S [1]; in series [2]; in the series on RPMI-8226 [3]) were 0.0026 µM, 0.0048 µM and 0.0045 µM, respectively. Further, the outcome in the series on MM.1R and with MM1.S [4] was inactive.
Take `CCCCCCCCCCCC(=O)O[C@H]1[C@H](O[C@@H]2[C@H]3OC(=O)CCCCCCCCC[C@H](CCCCC)O[C@@H]4O[C@H](C)[C@H](O)[C@H](O)[C@H]4O[C@H](O[C@H]2C)[C@@H]3O)O[C@@H](C)[C@H](O[C@@H]2O[C@@H](C)[C@H](OC(=O)[C@@H](C)CC)[C@@H](O)[C@H]2O)[C@H]1O[C@@H]1O[C@@H](C)[C@H](O)[C@@H](O)[C@H]1O` [PESCAPREIN III]: in the series with RPMI-8226 [3], the IC50 was more than 10 µM. Also, the outcome in the series on MM.1R and in the series with MM1.S [4] was inactive.
Take `CCCCCCCCCCCC(=O)O[C@H]1[C@H](O[C@@H]2[C@H]3OC(=O)CCCCCCCCC[C@H](CCCCC)O[C@@H]4O[C@H](C)[C@H](O)[C@H](O)[C@H]4O[C@H](O[C@H]2C)[C@@H]3O)O[C@@H](C)[C@H](O[C@@H]2O[C@@H](C)[C@H](OC(=O)CCCCC)[C@@H](O)[C@H]2O)[C@H]1O[C@@H]1O[C@@H](C)[C@H](O)[C@@H](O)[C@H]1O` [PESCAPREIN IV]: the IC50 with MM1.S [1] is more than 10 µM; in series [2], more than 10 µM; in the series on RPMI-8226 [3], 10.8 µM. Besides, the outcome in the series on MM.1R and in the series with MM1.S [4] was inactive.
On to `CCCCCCCCCC(=O)O[C@H]1[C@H](O[C@@H]2[C@H]3OC(=O)CCCCCCCCC[C@H](CCCCC)O[C@@H]4O[C@H](C)[C@H](O)[C@H](O)[C@H]4O[C@H](O[C@H]2C)[C@@H]3O)O[C@@H](C)[C@H](O[C@@H]2O[C@@H](C)[C@H](OC(=O)[C@@H](C)CC)[C@@H](OC(=O)/C=C/c3ccccc3)[C@H]2O)[C@H]1O[C@@H]1O[C@@H](C)[C@H](O)[C@@H](O)[C@H]1O` [PESCAPREIN XXIII], for which, in the series with RPMI-8226 [3], the IC50 was more than 10 µM. For the same molecule, the outcome in the series with MM.1R and with MM1.S [4] was inactive.
As to `CCCCCCCCCCCC(=O)O[C@H]1[C@H](O[C@@H]2[C@H]3OC(=O)CCCCCCCCC[C@H](CCCCC)O[C@@H]4O[C@H](C)[C@H](O)[C@H](O)[C@H]4O[C@H](O[C@H]2C)[C@@H]3O)O[C@@H](C)[C@H](O[C@@H]2O[C@@H](C)[C@H](OC(=O)[C@@H](C)CC)[C@@H](OC(=O)/C=C/c3ccccc3)[C@H]2O)[C@H]1O[C@@H]1O[C@@H](C)[C@H](O)[C@@H](O)[C@H]1O` [PESCAPREIN XXI], the IC50 with RPMI-8226 [3] is more than 10 µM. Moreover, the outcome in the series with MM.1R and in the series with MM1.S [4] was inactive.
Regarding `CCCCCCCCCC(=O)O[C@H]1[C@H](O[C@@H]2[C@H]3OC(=O)CCCCCCCCC[C@H](CCCCC)O[C@@H]4O[C@H](C)[C@H](O)[C@H](O)[C@H]4O[C@H](O[C@H]2C)[C@@H]3O)O[C@@H](C)[C@H](O[C@@H]2O[C@@H](C)[C@H](OC(=O)C(C)C)[C@@H](OC(=O)/C=C/c3ccccc3)[C@H]2O)[C@H]1O[C@@H]1O[C@@H](C)[C@H](O)[C@@H](O)[C@H]1O` [PESCAPREIN XXVI], the IC50 with RPMI-8226 [3] is more than 10 µM. Besides, the result in the series on MM.1R and in the series on MM1.S [4] was inactive.
As for `CCCCCCCCCCCC(=O)O[C@H]1[C@H](O[C@@H]2[C@H]3OC(=O)CCCCCCCCC[C@H](CCCCC)O[C@@H]4O[C@H](C)[C@H](O)[C@H](O)[C@H]4O[C@H](O[C@H]2C)[C@@H]3O)O[C@@H](C)[C@H](O[C@@H]2O[C@@H](C)[C@H](OC(=O)C(C)C)[C@@H](OC(=O)/C=C/c3ccccc3)[C@H]2O)[C@H]1O[C@@H]1O[C@@H](C)[C@H](O)[C@@H](O)[C@H]1O` [PESCAPREIN XXV], the IC50 in the series on RPMI-8226 [3] is more than 10 µM. Further, the outcome in the series with MM.1R and in the series on MM1.S [4] was inactive.
With `CCCCCCCCCC(=O)O[C@H]1[C@H](O[C@@H]2[C@H]3OC(=O)CCCCCCCCC[C@H](CCCCC)O[C@@H]4O[C@H](C)[C@H](O)[C@H](O)[C@H]4O[C@H](O[C@H]2C)[C@@H]3O)O[C@@H](C)[C@H](O[C@@H]2O[C@@H](C)[C@H](OC(=O)[C@@H](C)CC)[C@@H](O)[C@H]2O)[C@H]1O[C@@H]1O[C@@H](C)[C@H](O)[C@@H](O)[C@H]1O` [STOLONIFERIN III], the IC50 is more than 10 µM with MM1.S [1], more than 10 µM in series [2] and 7.7 µM in the series with RPMI-8226 [3]. Further, the outcome in the series with MM.1R and in the series on MM1.S [4] was inactive.
